Experiment [1] relates to E. coli BW25113, E. coli JW2496-3, E. coli ATCC 25922. In words: Minimal inhibitory concentration assay (bactericidal/bacteriostatic assessment). To be noted: dilution series 100-1.7 μM. In kind it is cell-based. From the text:
The intended effect of a SurA inhibitor should be the induction of a disturbance of the outer membrane composition resulting in an increased susceptibility to antibiotic treatment. Of note, Vancomycin is typically not used to treat infections with Gram-negative bacteria, because it is excluded by the OM and not efficient at concentrations that could be achieved in patients. However, at appropriate dosing in vitro it can be used to detect outer membrane defects. For determining a potential sensitizing effect of Vancomycin treatment, the inventors first tested whether the compounds at hand were bactericidal per se. Therefore, the inventors performed a minimal inhibitory concentration (MIC) assay. To this end, 5 ml overnight cultures of E. coli BW25113 (Keio-Collection reference strain), E. coli JW2496-3 (Keio-Collection single gene knockout for bamB, which suffers from decreased outer membrane integrity) and E. coli ATCC 25922 (a reference strain recommended for antibiotic susceptibility testing) were grown in Mueller Hinton Broth, Cation adjusted (MHB-II). The next day, the OD was adjusted to obtain 1*10^8 CFU/ml using fresh MHB-II. Next, this bacterial solution was diluted 1:100 into 20 ml fresh MHB-II. 50 μl of this bacteria solution were then transferred into each well of a 96-well plate prefilled with 50 μl MHB-II supplemented with the desired compounds. The test plates for the bactericidal assessment contained dilution series of the compounds from 100-1.7 μM. Plates were sealed with a gas permeable membrane and incubated o/n at 37° C. in a humid chamber without shaking. After o/n incubation, bacterial growth was quantified by measuring the optical density at 600 nm wavelength in a multiplate reader. Compounds showing no growth inhibition at 100 μM were considered non-bactericidal. Of note, the bactericidal effect of Vancomycin was assessed similarly for each test strain using Vancomycin concentrations ranging from […]. This was done to identify a Vancomycin concentration at which the strains just managed to survive.

The target of the next experiment is SurA (Escherichia coli, UniProt P0ABZ6). In words: Luciferase-based SurA activity assay (primary assay, in-house). In kind it is biochemical, E. coli. To be noted: n/d: no signal detected; for Primary Assay ICmax: QHL-10 derivatives, dose response up to 125 μM; for Primary Assay Amplitude: amplitude of signal. The text has this:
The biological function of SurA is to bind and to keep outer membrane proteins that have reached the periplasm in an unfolded but folding-competent state. The inventors' assay is based on this interaction and uses firefly Luciferase (fLuc) as a non-native substrate. […] This is exploited in the assay (FIG. 3). The loss of tertiary structure of fLuc leads to the exposure of binding sites for SurA. It is known that SurA binds selectively to a special group of substrates. These substrates have in common the specific patterns of hydrophobic amino acids that are highly enriched in the beta strands of integral outer membrane proteins. These motifs are present in OMPs of all Gram-negative bacteria and in fLuc as well. Upon mild heat treatment of fLuc and its subsequent partial unfolding, fLuc is accepted as a substrate by SurA. Of note, these intermediates served as reporter substrates to determine the activity of a […] folding chaperone. […] This interaction remains stable upon temperature reduction. Next, the temperature of the assay is reduced to room temperature and luciferase activity is subsequently measured by addition of Luciferin and ATP. In conditions without SurA, fLuc will refold into its active conformation resulting in a luminescence signal.
In short, the Luciferase based SurA activity assay was performed in SurA Activity Assay Buffer (40 mM HEPES pH 7.4, 20 mM MgSO4, 0.5 g/I BSA). SurA aliquots were thawn at RT, activated by mild heat treatment and cooled down to RT for 10 min. […] Solution A containing 10 mM ATP as well as 0.3 mM Luciferin (Promega Beetle Luciferin, Potassium Salt) in water was prepared. Luciferase working solution was prepared by diluting 1 ml Luciferase working stock (100 nM) with 9 ml assay buffer. 33 μl of the protein solution were added to every 2nd row of a well of a 384-well PS, white, flat bottom plate. […] Subsequently, 2 μl of compound in DMSO were added in quadruplicates (4 wells each of protein solution and buffer controls). These compound solutions could contain either various compounds or different dilutions of the same compound allowing screening inhibitor activity in a dose dependent manner. After compound addition, plates were incubated 15 min at RT. After this incubation, 5 μl of Luciferase working solution were added to each well. Next, the plates were incubated 25 min at 38° C. to partially unfold the Luciferase. Subsequently, the assay plate was cooled for 5 min at 4° C. followed by 10 min incubation at RT prior to luminescence measurement. Luminescence was measured in a TECAN infinite M200 pro plate reader for each well individually after injection of 10 μl Solution A.

The next experiment concerns E. coli JW2496-3. In words: Sensitizer MIC assay (vancomycin). In kind it is cell-based. To be noted: 100 μM compound, more susceptible strain. The protocol: (§1) To test for the sensitizer properties of the compounds, the inventors then performed a sensitizer MIC assay. To this end, E. coli BW25113, E. coli JW2496-3, and E. coli ATCC 25922 inocula were prepared as described above. Each well of a 96-well plate was prefilled with a fixed compound concentration of 100 μM and a dilution series of Vancomycin ranging from […]. A sensitizing effect was defined as reduction of the MIC value of Vancomycin of the respective test strain.

Another experiment concerns E. coli BW25113. In words: Sensitizer MIC assay (vancomycin). To be noted: 100 μM compound, wildtype strain. Format: cell-based. The protocol: as §1
For another experiment, the system named is E. coli ATCC 25922. In words: Sensitizer MIC assay (vancomycin). In kind it is cell-based. To be noted: vancomycin; 100 μM compound; type strain. The protocol:
as §1

6 molecules from patent US20240336573A1, “COMPOUND FOR THE TREATMENT AND PROPHYLAXIS OF INFECTIOUS DISEASES” (Eberhard Karls Universität Tübingen Medizinische Fakultät, priority 2021, published 2024) can be followed below.

SurA, sequence (P0ABZ6 21-428): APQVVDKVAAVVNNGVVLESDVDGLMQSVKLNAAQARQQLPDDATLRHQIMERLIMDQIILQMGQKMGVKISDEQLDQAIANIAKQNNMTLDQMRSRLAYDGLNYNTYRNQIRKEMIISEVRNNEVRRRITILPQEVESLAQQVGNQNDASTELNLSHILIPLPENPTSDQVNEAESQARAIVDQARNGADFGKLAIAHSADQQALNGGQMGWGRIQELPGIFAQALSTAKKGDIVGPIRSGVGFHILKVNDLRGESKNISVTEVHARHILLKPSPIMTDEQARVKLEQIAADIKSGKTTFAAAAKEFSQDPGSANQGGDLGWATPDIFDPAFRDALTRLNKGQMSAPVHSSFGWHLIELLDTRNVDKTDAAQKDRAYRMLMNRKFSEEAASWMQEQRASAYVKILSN

On to `NC(=O)c1nc(-c2ccc(F)c(N)c2)[nH]c1NC(=O)c1ccc(-c2ccccc2)cc1` [Compound 3d, 5-([1,1′-biphenyl]-4-carboxamido)-2-(3-amino-4-fluorophenyl)-1H-imidazole-4-carboxamide], for which the “Bacteriostatic MIC Assay Result” value in experiment [1] is given as “non-bacteriostatic”. For the same molecule, on SurA, the “Primary Assay ICmax” value turned out to be 16 µM and the “Primary Assay Amplitude” value is “high”. Further, the “Sensitizer MIC Assay (log2-fold reduction of MIC in presence of compound) JW2496-3” value in the experiment on E. coli JW2496-3 stood at 0 log2-fold. Besides, the “Sensitizer MIC Assay (log2-fold reduction of MIC in presence of compound) BW25113” value in the experiment on E. coli BW25113 stood at 0 log2-fold. In addition, the “Sensitizer MIC Assay (log2-fold reduction of MIC in presence of compound) ATCC25922” value with E. coli ATCC 25922 is 0 log2-fold.
On to `CCOc1ccc2ccccc2c1C(=O)Nc1[nH]c(-c2cccc(N)c2)nc1C(N)=O` [Compound 3e, 2-(3-aminophenyl)-5-(2-ethoxy-1-naphthamido)-1H-imidazole-4-carboxamide], for which the “Bacteriostatic MIC Assay Result” value in experiment [1] is reported as “non-bacteriostatic”. For the same molecule, on SurA, the “Primary Assay ICmax” value is 64 µM and the “Primary Assay Amplitude” value is listed as “low”. In addition, the “Sensitizer MIC Assay (log2-fold reduction of MIC in presence of compound) JW2496-3” value in the experiment with E. coli JW2496-3 turned out to be 0 log2-fold. The “Sensitizer MIC Assay (log2-fold reduction of MIC in presence of compound) BW25113” value in the experiment with E. coli BW25113 stood at 0 log2-fold. The “Sensitizer MIC Assay (log2-fold reduction of MIC in presence of compound) ATCC25922” value in the experiment with E. coli ATCC 25922 was determined as 0 log2-fold.
For `NC(=O)c1nc(-c2cccc(N)c2)[nH]c1NC(=O)c1ccc(-c2ccccc2)cc1` [Compound 3b, 5-([1,1′-biphenyl]-4-carboxamido)-2-(3-aminophenyl)-1H-imidazole-4-carboxamide], the “Bacteriostatic MIC Assay Result” value in experiment [1] was “non-bacteriostatic”. At SurA, the “Primary Assay ICmax” value was 8 µM and the “Primary Assay Amplitude” value was “high”. Moreover, the “Sensitizer MIC Assay (log2-fold reduction of MIC in presence of compound) JW2496-3” value in the experiment on E. coli JW2496-3 is 1-3 log2-fold. The “Sensitizer MIC Assay (log2-fold reduction of MIC in presence of compound) BW25113” value in the experiment on E. coli BW25113 is listed as 1 log2-fold. In addition, the “Sensitizer MIC Assay (log2-fold reduction of MIC in presence of compound) ATCC25922” value in the experiment on E. coli ATCC 25922 is recorded as 1 log2-fold.
Turning to `NC(=O)c1nc(Cc2ccccc2)[nH]c1NC(=O)c1ccc(-c2ccccc2)cc1` [Compound 1e, 5-([1,1′-biphenyl]-4-carboxamido)-2-benzyl-1H-imidazole-4-carboxamide], the “Bacteriostatic MIC Assay Result” value in experiment [1] is “non-bacteriostatic”. Besides, on SurA, the “Primary Assay ICmax” value was 16 µM and the “Primary Assay Amplitude” value is reported as “high”. Further, the “Sensitizer MIC Assay (log2-fold reduction of MIC in presence of compound) JW2496-3” value in the experiment with E. coli JW2496-3 is listed as 0 log2-fold. Moreover, the “Sensitizer MIC Assay (log2-fold reduction of MIC in presence of compound) BW25113” value with E. coli BW25113 is on record as 0 log2-fold. The “Sensitizer MIC Assay (log2-fold reduction of MIC in presence of compound) ATCC25922” value with E. coli ATCC 25922 was found to be 0 log2-fold.
Take `NC(=O)c1nc(-c2ccccc2O)[nH]c1NC(=O)c1ccc(-c2ccccc2)cc1` [Compound 3c, 5-([1,1′-biphenyl]-4-carboxamido)-2-(2-hydroxyphenyl)-1H-imidazole-4-carboxamide]: the “Bacteriostatic MIC Assay Result” value in experiment [1] is “non-bacteriostatic”. Further, at SurA, the “Primary Assay ICmax” value was 8 µM and the “Primary Assay Amplitude” value is recorded as “high”. Further, in the experiment with E. coli JW2496-3, the “Sensitizer MIC Assay (log2-fold reduction of MIC in presence of compound) JW2496-3” value is reported as 1-2 log2-fold. The “Sensitizer MIC Assay (log2-fold reduction of MIC in presence of compound) BW25113” value in the experiment on E. coli BW25113 is on record as 0 log2-fold. Moreover, the “Sensitizer MIC Assay (log2-fold reduction of MIC in presence of compound) ATCC25922” value in the experiment on E. coli ATCC 25922 is recorded as 1-2 log2-fold.
With `CCOC(=O)COc1ccc(Cc2nc(C(N)=O)c(NC(=O)c3ccc(-c4ccccc4)cc3)[nH]2)cc1` [Compound 1a, Ethyl 2-(4-((5-([1,1′-biphenyl]-4-carboxamido)-4-carbamoyl-1H-imidazol-2-yl)methyl)-phenoxy)acetate], in experiment [1], the “Bacteriostatic MIC Assay Result” value is given as “non-bacteriostatic”. At SurA, the “Primary Assay ICmax” value turned out to be 16 µM and the “Primary Assay Amplitude” value is on record as “high”. Further, the “Sensitizer MIC Assay (log2-fold reduction of MIC in presence of compound) JW2496-3” value with E. coli JW2496-3 is on record as 0 log2-fold. In addition, in the experiment with E. coli BW25113, the “Sensitizer MIC Assay (log2-fold reduction of MIC in presence of compound) BW25113” value was 0 log2-fold. The “Sensitizer MIC Assay (log2-fold reduction of MIC in presence of compound) ATCC25922” value in the experiment with E. coli ATCC 25922 is 0 log2-fold.
